According to PubChem BioAssay AID1963439 (Molecular Pharmacology Branch, DTP, NCI, 2024):

System: NCI-H196 complex spheroids with HUVEC/MSC, growth % T/C
Assay: Anticancer human tumor NCI-H196 cell line growth inhibition [Asc];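 note: spheroids exposed to compound for 7 days before measurement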;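 for viability, T/C: 100% = DMSO vehicle control wells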
Conditions: for IC50: curve of first compound; for viability, T/C: stronger effect = lower value
Method: Multicellular complex tumor spheroid response to apoptosis pathway targeting inhibitors Alrizomadlin, Pelcitoclax, and Dasminapant in combination with a variety of drugs and investigational agents in selected tumor cell lines
The MDM2 inhibitor alrizomadlin, the Bcl-2/Bcl-xL inhibitor pelcitoclax, and the IAPs inhibitor dasminapant were evaluated both individually and in combination with standard of care and investigational anticancer small molecules within a complex spheroid model of solid tumors. . Complex spheroids include a stromal component modeled by human endothelial cells (HUVEC) and fibroblasts modeled by human mesenchymal stem cells (MSCs). The concentration ranges selected for each drug and investigational agent were based upon clinically achievable concentrations if the clinical Cmax of the agent was known.
Compounds. The drugs and investigational agents: alrizomadlin (APG-115; NSC831270), pelcitoclax (APG-1252; NSC835773), dasminapant (APG-1387;NSC834197), TAK-243 (NSC785004), copanlisib (NSC809693), olaparib (NSC753686), talazoparib (NSC767125), cobimetinib (NSC 768068), eltanexor (KPT-8602, NSC 794443), abemaciclib (NSC 768073), sotorasib (NSC818433), adagrasib (NSC 831453), MRTX-1133 (NSC 836407), Iadademestat (ORY1001, NSC 806812), and RMC-4630 (NSC839698), were obtained from the NCI Developmental Therapeutics Program Chemical Repository. The FDA-approved anticancer drug set is available from the Developmental Therapeutics Program at https://dtp.cancer.gov/organization/dscb/obtaining/available plates.htm. […] The stock solutions were prepared in dimethyl sulfoxide (DMSO, Sigma-Aldrich, St. Louis, MO, cat. D2650) at 800-fold the tested concentration and stored at -70 degrees C prior to their use. All drugs and investigational agents were tested over a range starting from a high concentration at or near the clinical Cmax and decreasing in half-log increments. If the clinical Cmax for an agent had not been determined, the highest concentration tested was 10 microM.
The patient-derived cancer (PDC) cell lines include five colon adenocarcinomas: 186277-243-T-J2-PDC, 616215-338-R-J1-PDC, 439559-082-T-J2-PDC, 463943-066-T-J2-PDC, and 519858-162-T-J1-PDC; three pancreatic carcinomas: 323965-272-R-J2-PDC, 521955-158-R6-J3-PDC, and 521955-158-R2-J5-PDC; two uterine sarcomas: 327498-152-R-J2-PDC and 993429-296-R-J1-PDC; two rhabdomyosarcomas: 755483-174-R-J1-PDC and 772245-204-R-J1-PDC; two soft tissue sarcomas: 126254-015-R-J1-PDC and 494315-158-R-J1-PDC; two malignant fibrous histiocytomas: 317291-083-R-J1-PDC and 596521-263-R-J1-PDC; two breast carcinomas: 171881-019-R-J1-PDC and 885512-296-R-J2-PDC; and one ovarian carcinoma: 6556581-035-R-J-PDC were obtained from the NCI PDMR, (https://pdmr.cancer.gov). The established cell lines HSSY-2 synovial sarcoma (RRID:CVCL 8719), SYO-1 synovial sarcoma (RRID:CVCL_7146), MPNST malignant peripheral neural sheath tumor were obtained from the Sloan Kettering Institute. The following established cell lines were purchased from the American Type Culture Collection (ATCC, Manassas, VA), Sor the received from the NCI repository:, PANC-1 pancreatic carcinoma (CRL-1469, RRID:CVCL_0480), OVCAR-5 ovarian carcinoma (RRID:CVCL_1628), OVCAR-8 ovarian carcinoma (RRID:CVCL_1629), , MCF-7 breast carcinoma (CRL-12584, RRID:CVCL_0031), MDA-MB-231 breast carcinoma (CRL-12532, RRID:CVCL_0062), NCI-H1876 small cell lung carcinoma (CRL-5902, RRID:CVCL_1503), NCI-H510A small cell lung carcinoma (HTB-184, RRID:CVCL_1565), NCI-H1417 (CRL-5869, RRID:CVCL_1469), and NCI-H196 small cell lung carcinoma (CRL-5823, RRID:CVCL_1509). Dr. Peter Houghton (Greehey Children's Cancer Research Institute, University of Texas Health Science Center, San Antonio, TX) provided Rh-18 rhabdomyosarcoma (RRID:CVCL_1659). Pooled donor human umbilical vein endothelial cells (HUVEC, Lonza, cat. CC-2519) and human mesenchymal stem cells (hMSC, Lonza, cat. PT-2501) were purchased from Lonza (Walkersville, MD).
Cell Culture. […]

[1] = second compound 0.1 µM, first compound 0.0316 µM
[2] = second compound 0.1 µM, first compound 0.1 µM
[3] = second compound 0.1 µM, first compound 0.316 µM
[4] = second compound 0.1 µM, first compound 1 µM
[5] = second compound 0.1 µM, first compound 3.16 µM
[6] = second compound 0.1 µM, first compound 10 µM
[7] = second compound 0.316 µM, first compound 0.0316 µM
[8] = second compound 0.316 µM, first compound 0.1 µM
[9] = second compound 0.316 µM, first compound 0.316 µM
[10] = second compound 0.316 µM, first compound 1 µM
[11] = second compound 0.316 µM, first compound 3.16 µM
[12] = second compound 0.316 µM, first compound 10 µM
[13] = second compound 1 µM, first compound 0.0316 µM
[14] = second compound 1 µM, first compound 0.1 µM
[15] = second compound 1 µM, first compound 0.316 µM
[16] = second compound 1 µM, first compound 1 µM
[17] = second compound 1 µM, first compound 3.16 µM
[18] = second compound 1 µM, first compound 10 µM

SMILES	IC50 (second compound 0.1 µM) [µM]	IC50 (second compound 0.316 µM) [µM]	IC50 (second compound 1 µM) [µM]	viability, T/C [1] [%]	viability, T/C [2] [%]	viability, T/C [3] [%]	viability, T/C [4] [%]	viability, T/C [5] [%]	viability, T/C [6] [%]	viability, T/C [7] [%]	viability, T/C [8] [%]	viability, T/C [9] [%]	viability, T/C [10] [%]	viability, T/C [11] [%]	viability, T/C [12] [%]	viability, T/C [13] [%]	viability, T/C [14] [%]	viability, T/C [15] [%]	viability, T/C [16] [%]	viability, T/C [17] [%]	further results
C=C(F)C(=O)N1CCN(c2nc(OCC3CCCN3C)nc3c2CCN(c2cccc4cccc(Cl)c24)C3)CC1CC#N (stereo not given) + CNC(C)C(=O)NC1CN(S(=O)(=O)c2cccc(S(=O)(=O)N3CCC4CCC(C(=O)NC(c5ccccc5)c5ccccc5)N4C(=O)C(NC(=O)C(C)NC)C3)c2)CCC2CCC(C(=O)NC(c3ccccc3)c3ccccc3)N2C1=O	< 0.0316	< 0.0316	< 0.0316	4.2	5.22	5.23	3.23	0.27	0.18	4.24	3.28	1.71	2.27	2.27	0.18	3.34	3.4	2.52	1.53	0.35	IC50 (second compound 0.01 µM): < 0.0316 µM; IC50 (second compound 0.0316 µM): < 0.0316 µM; viability, T/C (second compound 0.01 µM, first compound 0.0316 µM): 7.36%; viability, T/C (second compound 0.01 µM, first compound 0.1 µM): 8.05%; viability, T/C (second compound 0.01 µM, first compound 0.316 µM): 5.8%; viability, T/C (second compound 0.01 µM, first compound 1 µM): 3.58%; viability, T/C (second compound 0.01 µM, first compound 3.16 µM): 0.83%; viability, T/C (second compound 0.01 µM, first compound 10 µM): 0.19%; viability, T/C (second compound 0.0316 µM, first compound 0.0316 µM): 3.17%; viability, T/C (second compound 0.0316 µM, first compound 0.1 µM): 4.55%; viability, T/C (second compound 0.0316 µM, first compound 0.316 µM): 4.1%; viability, T/C (second compound 0.0316 µM, first compound 1 µM): 3.88%; viability, T/C (second compound 0.0316 µM, first compound 3.16 µM): 0.38%; viability, T/C (second compound 0.0316 µM, first compound 10 µM): 0.16%; viability, T/C [18]: 0.24%
C#Cc1c(F)ccc2cc(O)cc(-c3ncc4c(N5CC6CCC(C5)N6)nc(OCC56CCCN5CC(F)C6)nc4c3F)c12 (stereo not given) + Cc1c(S(C)(=O)=O)c(-c2cc(F)cc(N3CCN(c4ccc(NS(=O)(=O)c5ccc(NC(CCN6CCC(C(=O)OCCCP(=O)(O)O)CC6)CSc6ccccc6)c(S(=O)(=O)C(F)(F)F)c5)cc4)CC3)c2)c(-c2ccc(Cl)cc2)n1C(C)C	> 10	> 10	> 10	92.8	93	98.2	98.1	94.2	93.5	98.3	93.3	88.8	97.8	94.8	88.1	88.9	87.7	90.8	89.2	93.7	IC50 (second compound 3.16 µM): > 10 µM; IC50 (second compound 10 µM): > 10 µM; viability, T/C [18]: 83.7%; viability, T/C (second compound 3.16 µM, first compound 0.0316 µM): 84.4%; viability, T/C (second compound 3.16 µM, first compound 0.1 µM): 86.7%; viability, T/C (second compound 3.16 µM, first compound 0.316 µM): 81.3%; viability, T/C (second compound 3.16 µM, first compound 1 µM): 75.5%; viability, T/C (second compound 3.16 µM, first compound 3.16 µM): 78.5%; viability, T/C (second compound 3.16 µM, first compound 10 µM): 70.1%; viability, T/C (second compound 10 µM, first compound 0.0316 µM): 71.8%; viability, T/C (second compound 10 µM, first compound 0.1 µM): 77.8%; viability, T/C (second compound 10 µM, first compound 0.316 µM): 82.7%; viability, T/C (second compound 10 µM, first compound 1 µM): 80.4%; viability, T/C (second compound 10 µM, first compound 3.16 µM): 71.2%; viability, T/C (second compound 10 µM, first compound 10 µM): 58%
